One experiment has as its system RTV-010829/270I. Put plainly: Phenotypic susceptibility assay, RTV-010829/270I. Format: cell-based, HIV. As to conditions: RTV-010829 with I270M reverted. The source says:
(§1) The resistance test vectors containing a functional luciferase gene cassette were constructed and host cells were transfected with the resistance test vector DNA. The resistant test vectors contained patient-derived reverse transcriptase and protease sequences that were either susceptible or resistant to the antiretroviral agents, such as nucleoside reverse transcriptase inhibitors, (NRTIs) non-nucleoside reverse transcriptase inhibitors […] protease inhibitors. The resistance test vector viral particles produced by transfecting the resistance test vector DNA into host cells, either in the presence or absence of PRIs, were used to infect target host cells grown either in the absence of NRTIs or NNRTIs, or in the presence of increasing concentrations of the drug. The amount of luciferase activity produced in infected target host cells in the presence of varying concentrations of drug was compared to the amount of luciferase produced in infected target host cells in the absence of drug. “Drug resistance” was measured as the amount of drug required to inhibit by 50% the luciferase activity detected in the absence of drug (inhibitory concentration 50%, IC50). The IC50 values were determined by plotting percent drug inhibition vs. log10 drug concentration. Stimulation of viral replication was measured as the percent increase in luciferase activity detected when infection occurs in the presence of drug as compared to in the absence of drug.
(§2) Host cells were seeded in 10-cm-diameter dishes and were transfected several days after plating with resistance test vector plasmid DNA and the envelope expression vector. Transfections were performed using a calcium-phosphate precipitation procedure. The cell culture media containing the DNA precipitate was replaced with fresh medium, from one to 24 hours, after transfection. Cell culture media containing resistance test vector viral particles was harvested one to four days after transfection and was passed through a […] filter before being used to infect target host cells, or being stored at −80° C. HIV capsid protein (p24) levels in the harvested cell culture media were determined by an EIA method as described by the manufacturer (SAIC; Frederick, Md.). Before infection, target cells (293 and 293/T) were plated in cell culture media. Control infections were performed using cell culture media from mock transfections (no DNA) or transfections containing the resistance test vector plasmid DNA without the envelope expression plasmid. One to three or more days after infection, the media was removed and cell lysis buffer (Promega) was added to each well. Cell lysates were assayed for luciferase activity (FIG. 3). The inhibitory effect of the drug was determined using the following equation:
(§3) % luciferase inhibition=1−(RLUluc[drug]÷RLUluc)×100
(§4) where RLUluc [drug] is the Relative Light Unit of luciferase activity in infected cells in the presence of drug, and RLUluc is the Relative Light Unit of luciferase activity in infected cells in the absence of drug. IC50values were obtained from the sigmoidal curves that were generated from the data by plotting the percent inhibition of luciferase activity vs. the log10 drug concentration. The percent luciferase stimulation is the negative of the % inhibition calculated using the formula above.
A resistance test vector containing all of the mutations present in RTV-010829 except for the V245E mutation (RTV-010829/245V) was constructed and tested using the phenotypic assay described earlier. The results were compared to those determined using the parent RTV-010829. We determined the pattern of phenotypic susceptibility to the NNRTIs, delavirdine, nevirapine and efavirenz, in the reverted vector RTV-010829/245V. […] A resistance test vector containing all of the mutations present in RTV-010829 except for the I270M (RTV-010829/270I) was constructed and tested using the phenotypic assay described earlier. […]

A further experiment relates to K103N/M230L-RTV. The experiment can be described thus: Phenotypic susceptibility assay, K103N/M230L-RTV. In kind it is cell-based, HIV-1. The settings on record: site-directed K103N + M230L.
Source text: as §1, §2, §3, §4
The M230L mutation was tested alone and is described in Example 3 above. A resistance test vector containing the M230L mutation and the K103N mutation (K103N/M230L-RTV) was constructed and tested using the phenotypic assay described earlier, and the results were compared to those determined using a genetically defined resistance test vector that was wild type at positions 103 and 230. We determined the pattern of phenotypic susceptibility to the NNRTIs, delavirdine, nevirapine and efavirenz, in the K103N/M230L-RTV. […]

The test system of the next experiment is RTV-013522. Put plainly: Phenotypic susceptibility assay, RTV-013522. Format: cell-based, HIV. As to conditions: patient 013522; for decrease in susceptibility: K103N, I135T, I270S.
Source text: as §1, §2, §3, §4
(§5) A resistance test vector was constructed as described in Example 1 from a virus sample obtained from patient 013522. The prior and current treatment regimens are unknown. Isolation of viral RNA and RT/PCR was used to generate a patient derived segment (PDS) that comprised viral sequences coding for all of PR and aa 1-313 of RT from all three samples. The PDS were inserted into an indicator gene viral vector to generate a resistance test vector designated RTV-013522. RTV-013522 was then tested in a phenotypic assay to determine accurately and quantitatively the level of susceptibility to a panel of anti-retroviral drugs. […]

In another experiment the test system is RTV-1033-3/106V/227F. Put plainly: Phenotypic susceptibility assay, RTV-1033-3/106V/227F. In kind it is cell-based, HIV. As to conditions: RTV-1033-3 with V106A and F227L reverted.
Source text: as §1, §2, §3, §4
A resistance test vector containing all of the mutations present in RTV-1033-3 except for V106A and F227L (RTV-1033-3/106V/227F) was constructed and tested using the phenotypic assay described earlier. The results were compared to those determined using the parent RTV-1033-3. We determined the pattern of phenotypic susceptibility to the NNRTIs, delavirdine, nevirapine and efavirenz, in the reverted vector, RTV-1033-3/106V/227F.

Another experiment has as its system RTV-V245E. The experiment can be described thus: Phenotypic susceptibility assay, RTV-V245E. Format: cell-based, HIV-1. As to conditions: site-directed V245E alone.
Source text: as §1, §2, §3, §4
A resistance test vector containing a single mutation, V245E, (RTV-V245E) was constructed and tested in the phenotypic assay described earlier. The results were compared to those determined using a genetically defined resistance test vector that was wild type at position 245. We determined the pattern of phenotypic susceptibility to the NNRTIs, delavirdine, nevirapine and efavirenz, in […].

The test system of a further experiment is RTV-012123. Put plainly: Phenotypic susceptibility assay, RTV-012123. In kind it is cell-based, HIV. The settings on record: patient 012123; for decrease in susceptibility: 245 with multiple other mutations.
Source text: as §1, §2, §3, §4
as §5, with “012123.” for “013522.”, “RT.” for “RT from all three samples.”, “RTV-012123. RTV-012123” for “RTV-013522. RTV-013522”

“Also recorded” adds a separate entry of the source.

We go through 3 molecules from US6653081B2, “Methods for monitoring antiretroviral therapy and guiding therapeutic decision in the treatment of HIV/AIDS” (ViroLogic, Inc., priority 2000, dated 2003).

As to `CC(C)Nc1cccnc1N1CCN(C(=O)c2cc3cc(NS(C)(=O)=O)ccc3[nH]2)CC1` [delavirdine], the “drug-dependent stimulation of viral replication” value (shortened to “drug-dependent stimulation”) with RTV-010829/270I is given as around 40%; in the experiment with K103N/M230L-RTV it was around 100%; with RTV-013522, around 110%; in the experiment with RTV-1033-3/106V/227F, around 80%; in the experiment on RTV-V245E it was “no drug-dependent stimulation”; with RTV-012123, around 80%. The “reductions in susceptibility compared to wild type control RTV” value (from here on “reductions in susceptibility”) was 247 fold with RTV-010829/270I, 6 fold with RTV-1033-3/106V/227F and “no reductions; also recorded: no significant reduction” with RTV-V245E. Also, the “reduction in susceptibility compared to wild type control RTV” value (“reduction in susceptibility” for short) in the experiment on K103N/M230L-RTV is above 250 fold. For the same molecule, the decrease in susceptibility in the experiment with RTV-013522 and in the experiment on RTV-012123 was above 250 fold throughout.

With `O=C1Nc2ccc(Cl)cc2[C@@](C#CC2CC2)(C(F)(F)F)O1` [efavirenz], the “drug-dependent stimulation” value with RTV-010829/270I was around 20%; in the experiment with K103N/M230L-RTV, around 40%; in the experiment on RTV-013522 it was around 100%; in the experiment on RTV-1033-3/106V/227F, around 80%; with RTV-V245E, “no drug-dependent stimulation”; in the experiment on RTV-012123, around 70%. The “reductions in susceptibility” value in the experiment on RTV-010829/270I is reported as 145 fold; in the experiment with RTV-1033-3/106V/227F, 6 fold; with RTV-V245E it was “no reductions; also recorded: no significant reduction”. Moreover, the “reduction in susceptibility” value in the experiment with K103N/M230L-RTV is on record as above 470 fold. Besides, the decrease in susceptibility with RTV-013522 and in the experiment on RTV-012123 was above 450 fold each time.

`Cc1ccnc2c1NC(=O)c1cccnc1N2C1CC1` [nevirapine]: the “drug-dependent stimulation” value is around 30% in the experiment on RTV-010829/270I; around 70% in the experiment with K103N/M230L-RTV; around 90% with RTV-013522; around 110% in the experiment on RTV-1033-3/106V/227F; “no drug-dependent stimulation” in the experiment with RTV-V245E; around 20% in the experiment with RTV-012123. Further, the results for the “reductions in susceptibility” value with RTV-010829/270I, in the experiment with RTV-1033-3/106V/227F and in the experiment with RTV-V245E were 341 fold, 13 fold and “no reductions; also recorded: no significant reduction”, respectively. In the experiment with K103N/M230L-RTV, the “reduction in susceptibility” value is above 600 fold. Also, the decrease in susceptibility in the experiment with RTV-013522 and with RTV-012123 was above 600 fold each time.
